{
  "source": "patent US20150176022A1",
  "about": "“HERBICIDE-RESISTANT SUNFLOWER PLANTS, POLYNUCLEOTIDES ENCODING HERBICIDE=RESISTANT ACETO HYDROXY ACID SYNTHASE LARGE SUBUNIT PROTEINS, AND METHODS OF USE” (priority 2013, published 2015)",
  "system": "M2 plants of EMS-treated BTK47",
  "test": "Selection of imidazolinone-resistant M2 plants (Example 1)",
  "format": "in vivo, Helianthus annuus",
  "conditions": "approximately 590,000 M2 plants sprayed at V2-V4 stage; 80 g ai/ha; greenhouse",
  "method": "BTK47, a Helianthus annuus L. breeding line, was chemically mutated as follows. Sixty thousand seeds of the BTK47 line were treated with a solution of ethyl methanesulfonate (EMS) for 15 hours. The treated seeds were then sown under field conditions on Dec. 16, 2002 at Nidera Experimental Station in Venado Tuerto, Santa Fe, Argentina. Approximately 30,000 M1 plants flowered and were covered with bags in order to self-pollinate each plant. Each plant was harvested and threshed by hand. On May 10, 2003 at Nidera Experimental Station in Formosa, 20 M2 seeds from each capitulum were sown under greenhouse conditions. Approximately 590,000 plants were sprayed at V2-V4 stage with imazapyr at a rate of 80 g ai/ha. […] M3 seeds from each of these eight plants were evaluated for their resistance to imazapyr. Out of these eight M3 families, one family (S4897) segregated for herbicide resistance at a ratio of 1 resistant (i.e., conferring tolerance to commercial rates of imidazolinone herbicides): 2 intermediate (i.e., partially resistant): 1 susceptible. Fully fertile resistant plants were self pollinated and harvested in order to propagate the line S4897.",
  "data": [
    {"smiles": "CC(C)C1(C)N=C(c2ncccc2C(=O)O)NC1=O", "note": "(stereo not shown) [imazapir, imazapyr]", "values": [
      {"measurement": "plants surviving the herbicide treatment", "value": "Eight plants survived"}
    ]}
  ]
}
